Assay results as given in patent publication US9487489B2, “Halogen-substituted pyrazole derivatives as pest-control agents” (BAYER CROPSCIENCE AKTIENGESELLSCHAFT, priority 2013, dated 2016).

Assays:
[1] = tested on: engorged adult female cattle ticks (Boophilus microplus); assay: Boophilus microplus injection test (BOOPMI Inj); type: in vivo; settings: application rate 20 μg/animal; injection into abdomen; assessed after 7 days
Outline: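 DMSO solution of compound (1 μl) injected into the abdomen of 5 engorged adult female ticks, which are then held in a climate-controlled room. After 7 days, efficacy is scored from laying of fertile eggs, with unclear eggs kept until larval hatch (~42 days); 100% means no fertile eggs, 0% all fertile.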

[2] = tested on: green peach aphid (Myzus persicae); assay: Myzus persicae spray test (MYZUPE); type: in vivo; settings: application rate 500 g/ha; Chinese cabbage leaf discs; after 6 days
Outline: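 Chinese cabbage leaf discs infested with all aphid stages sprayed with compound in acetone/DMF with alkylaryl polyglycol ether emulsifier in water. Efficacy (% aphids killed; 100% all dead, 0% none) scored after 6 days.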

[3] = tested on: greenhouse red spider mite (Tetranychus urticae); assay: Tetranychus urticae spray test, OP-resistant (TETRUR); type: in vivo; settings: bean leaf discs, after 6 days
Outline: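 Bean leaf discs carrying all stages of OP-resistant Tetranychus urticae were sprayed with compound formulated in acetone/dimethylformamide and diluted in water with 1000 ppm alkylaryl polyglycol ether emulsifier. Mortality (% efficacy, 100% = all mites killed) scored after 6 days.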

[4] = tested on: caterpillars of the armyworm (Spodoptera frugiperda); assay: Spodoptera frugiperda spray test (SPODFR); type: in vivo; settings: application rate 500 g/ha; maize leaf discs; after 7 days
Outline: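 Maize leaf discs sprayed with compound in acetone/DMF with alkylaryl polyglycol ether emulsifier (1000 ppm) in water, dried, then infested with armyworm caterpillars. Mortality (%) scored after 7 days; 100% = all caterpillars killed, 0% = none killed.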

[5] = tested on: southern root-knot nematode (Meloidogyne incognita); assay: Meloidogyne incognita test (MELGIN); type: in vivo; settings: application rate 20 ppm; lettuce; after 14 days
Method: K. Meloidogyne incognita Test (MELGIN)
Solvent: 125.0 parts by weight of acetone
To prepare a suitable active compound preparation, 1 part by weight of active compound is mixed with the stated amount of solvent and the concentrate is diluted with water to the desired concentration.
Vessels are filled with sand, active compound solution, an egg/larvae suspension of the southern root-knot nematode (Meloidogyne incognita) and lettuce seeds. The lettuce seeds germinate and the plants develop. On the roots, galls are formed.
After 14 days, the nematicidal efficacy in % is determined by the formation of galls. 100% means that no galls have been found; 0% means that the number of galls on the treated plants corresponds to the untreated control.

[6] = tested on: adult cat fleas (Ctenocephalides felis); assay: Ctenocephalides felis oral test (CTECFE); type: in vivo; settings: application rate 100 ppm in citrated cattle blood; after 2 days
Outline: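 About 20 unfed adult cat fleas fed through parafilm membrane on citrated cattle blood containing compound (DMSO stock diluted in blood to test concentration). Kill % scored after 2 days (100% = all fleas dead).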

[7] = tested on: larvae of the mustard beetle (Phaedon cochleariae); assay: Phaedon cochleariae spray test (PHAECO); type: in vivo; settings: Chinese cabbage leaf discs, after 7 days
Outline: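 Compound dissolved in acetone/dimethylformamide with alkylaryl polyglycol ether emulsifier, made up in water containing 1000 ppm emulsifier, then diluted to test concentrations and sprayed against mustard beetle larvae. Efficacy (% larvae killed) scored after 7 days.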

[8] = tested on: L1 larvae of the Australian sheep blowfly (Lucilia cuprina); assay: Lucilia cuprina test (LUCICU); type: in vivo; settings: application rate 100 ppm; after 2 days
Outline: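 About 20 L1 larvae placed in a vessel with minced horsemeat plus compound (DMSO concentrate diluted with water to the desired concentration). Kill in % scored after 2 days, 100% meaning all larvae dead.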

[9] = tested on: adult cat fleas (Ctenocephalides felis); assay: Ctenocephalides felis in vitro contact test with adult cat fleas (T1); settings: after 48 h
Outline: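 Test compound was dissolved in acetone p.a. (9 mg per 1 ml) and diluted as needed. 250 μl was spread evenly over the inner walls and floor of a 25 ml test tube by rotating on an orbital shaker for 2 h at 30 rpm. Once the solvent evaporated, 5-10 adult Ctenocephalides felis were added. Tubes were capped with a perforated plastic lid and kept horizontal at room temperature and ambient humidity.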

[10] = tested on: adult houseflies (Musca domestica); assay: Musca domestica test (MUSCDO); type: in vivo; settings: application rate 100 ppm; after 2 days
Outline: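 Compound dissolved in DMSO and diluted with water to the test concentration, applied with sugar solution on a sponge; 10 adult houseflies per vessel. Mortality scored after 2 days as % kill (100% all dead, 0% none).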

[11] = tested on: cattle ticks (Boophilus microplus) Parkhurst strain, SP-resistant; assay: Boophilus microplus dip test (BOOPMI Dip); type: in vivo; settings: application rate 100 ppm, assessed after 7 days
Outline: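 Adult engorged female SP-resistant Parkhurst ticks (8–10) were fully immersed in compound diluted in water from a DMSO solution, then kept in a climate-controlled room. After 7 days, fertile egg-laying was scored, with larval hatching checked at about 42 days; 100% efficacy means no fertile eggs.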

[12] = tested on: adult dog ticks (Rhipicephalus sanguineus); assay: Rhipicephalus sanguineus in vitro contact test with adult brown dog ticks (T2); settings: after 48 h
Outline: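 Acetone solutions coated onto test tube walls and floor, giving 5 μg/cm^2 at 900 ppm. Five to ten adult ticks held per tube in the dark at room temperature for 48 h, then heated at 45-50° C for up to 5 min; efficacy is the percentage of dead or moribund ticks unable to climb away.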

[13] = logP determination by HPLC on a reversed-phase column (C18), EEC Directive 79/831 Annex V.A8; type: physicochemical; settings: HPLC on reversed-phase column (C18), acetonitrile/water with formic acid, EEC Directive 79/831 Annex V.A8
Outline: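 Retention on a C18 reversed-phase column (Zorbax Eclipse Plus, 1.8 micron) was used, eluting with acetonitrile/water, each containing formic acid. The gradient ran from 10% to 95% acetonitrile over 4.25 min, then held 1.25 min, at 55° C and 2.0 ml/min, with MS detection.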

[14] = tested on: bont tick nymphs (Amblyomma hebraeum); settings: after 48 h
[15] = tested on: Tick nymphs (Amblyomma hebraeum); assay: Amblyomma hebraeum test (AMBYHE), tick nymphs immersed; type: in vivo; settings: application rate 100 ppm; immersed one minute; after 42 days
Method: A. Amblyomma hebaraeum Test (AMBYHE)
Solvent: dimethyl sulphoxide
To produce a suitable preparation of active compound, 10 mg of active compound are mixed with 0.5 ml of dimethyl sulfoxide, and the concentrate is diluted with water to the desired concentration.
Tick nymphs (Amblyomma hebraeum) are placed into perforated plastic beakers and immersed in the desired concentration for one minute. The ticks are transferred on filter paper into a Petri dish and stored in a climate-controlled cabinet.
After 42 days, the kill in % is determined. 100% means that all of the ticks have been killed; 0% means that none of the ticks have been killed.

[16] = tested on: adult castor bean ticks (Ixodes ricinus); assay: Ixodes ricinus in vitro contact test with adult castor bean ticks (T3); settings: application rate 5 μg/cm^2; after 48 h
Method: T3. Ixodes ricinus-in vitro Contact Tests with Adult Castor Bean Ticks
For the coating of the test tubes, initially 9 mg of active compound are dissolved in 1 ml of acetone p.a. and then diluted with acetone p.a. to the desired concentration. By turning and rocking on an orbital shaker (2 h of rocking rotation at 30 rpm), 250 μl of the solution are distributed homogeneously on the internal walls and the floor of a 25 ml test tube. At 900 ppm active compound solution and 44.7 cm^2 internal surface, an area dose of 5 μg/cm^2 is achieved for homogeneous distribution.
After evaporation of the solvent, the tubes are populated with 5-10 adult castor bean ticks (Ixodes ricinus), sealed with a perforated plastic lid and incubated in a horizontal position in the dark at 22° C. and 90% humidity in a climate-controlled cabinet. After 48 h, the efficacy is determined. To this end, the ticks are knocked to the floor of the tube and incubated on a hotplate at 45-50° C. for at most 5 min. Ticks which remain motionless on the floor or move in an uncoordinated manner such that they are not able to deliberately avoid the heat by climbing upwards are considered to be dead or moribund.
An efficacy of 100% means that all ticks were dead or moribund. 0% efficacy means that none of the ticks had been damaged.

SMILES	efficacy (laying of fertile eggs) [1]	efficacy in % [2]	efficacy in % ([3]; application rate 500 g/ha)	efficacy in % [4]	nematicidal efficacy in % (formation of galls) [5]	efficacy (kill in %) [6]	efficacy in % ([7]; application rate 500 g/ha)	efficacy (kill in %) [8]	efficacy (dead or moribund fleas) ([9]; application rate 1 μg/cm^2)	efficacy (dead or moribund fleas) ([9]; application rate 5 μg/cm^2)	efficacy (kill in %) [10]	efficacy (laying of fertile eggs) [11]	efficacy (dead or moribund ticks) ([12]; application rate 1 μg/cm^2)	efficacy (dead or moribund ticks) ([12]; application rate 5 μg/cm^2)	logP [13]	efficacy (dead or moribund ticks) [14]	efficacy (kill in %) [15]	efficacy (dead or moribund ticks) [16]	efficacy in % ([3]; application rate 100 g/ha)	efficacy in % ([7]; application rate 100 g/ha)
Cn1nc(C(F)(F)C(F)(F)F)c(C(F)(F)F)c1-n1cc(-c2ccc(Cl)c(C(=O)NCC(N)=O)c2)cn1 [Ic-156]	90%	90%	100%	100%	90%	100%	100%													
CNC(=O)c1cc(-c2cnn(-c3c(C(F)(F)F)c(C(F)(F)C(F)(F)F)nn3C)c2)ccc1Cl [Ic-152]	100%	100%	100%	100%	100%	100%	100%	100%	100%	100%	100%	100%	100%	100%						
Cn1nc(C(F)(F)C(F)(F)F)c(C(F)(F)F)c1-n1cc(-c2ccc(Cl)c(C(=O)NS(C)(=O)=O)c2)cn1 [Ic-26]					90%										3.58					
Cn1nc(C(F)(F)C(F)(F)F)c(C(F)(F)F)c1-n1cc(-c2cc(F)c(F)c(C(=O)NC3(C#N)CC3)c2)cn1 [Ic-47]	100%	100%		100%		100%	100%	100%	100%	100%	100%	100%	100%	100%		100%	100%	100%		
CSCC1CCC1NC(=O)c1cc(-c2cnn(-c3c(C(F)(F)F)c(C(F)(F)C(F)(F)F)nn3C)c2)ccc1Cl (stereo not drawn) [Ic-120]					90%										4.56				100%	83%
